IC50 data for five compounds are collected here from BindingDB's records for patent US10626094 (Sanford Burnham Prebys Medical Discovery Institute, 2020).

Molecules are shown by their SMILES.

For the test, the target named is T1, Low molecular weight phosphotyrosine protein phosphatase (Homo sapiens, UniProt P24666).
T1 sequence (P24666 whole entry): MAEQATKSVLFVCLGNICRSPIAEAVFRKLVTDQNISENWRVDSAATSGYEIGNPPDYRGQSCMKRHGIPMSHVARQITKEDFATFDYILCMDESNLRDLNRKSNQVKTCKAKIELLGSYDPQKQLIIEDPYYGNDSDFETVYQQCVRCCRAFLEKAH
In words: LMPTP Primary Screening Protocol. On the procedure:
1. Prepare Reagents as described in section F. Recipe.2. Using LabCyte Echo, transfer 60 nL from 2 mM test compound source plate into assay plate Col. 5-48 (final concentration of test compounds is 20 μM). 60 nL of DMSO should be transferred to col. 1-4 for positive and negative control wells.3. Spin plates at 1000 rpm for 1 minute in centrifuge.4. Using the Beckman Coulter Bioraptr, add 3 μL/well of control buffer to columns 1 and 2.5. Using the Bioraptr, add 3 μL/well of enzyme solution to col. […] Using the Bioraptr, add 3 μL/well of substrate solution to col. 1-48.7. Spin plates at 1000 rpm for 1 minute in centrifuge.8. Incubate plates in the dark at room temperature for 50 minutes.9. Read plates on PerkinElmer Viewlux using a FI protocol.

The compound `O=C(c1ccc(-c2cc(NCCCC3CCCNC3)c3ccccc3n2)cc1)N1CCCC1` (stereo not given) [4-{4-[(3-piperidylpropyl)amino](2-quinolyl)}phenyl pyrrolidinyl ketone] came in with an IC50 of 0.802 to 5 µM.

The compound `c1ccc(-c2cc(NCCN3CCOCC3)c3ccccc3n2)cc1` [(2-morpholin-4-ylethyl)(2-phenyl(4-quinolyl))amine] had an IC50 of 0.802 to 5 µM.

`CC(C)NC(=O)c1ccc(-c2cc(NCCCC3CCCNC3)c3ccccc3n2)cc1` (stereo not given) [N-(methylethyl)(4-{4-[(3-piperidylpropyl)amino](2-quinolyl)}phenyl)carboxamide] gave a half-inhibitory concentration (IC50) of 0.802 to 5 µM.

`CCN1CCN(Cc2ccc(NC3CC(c4ccc(OC)cc4)Nc4ccccc43)cc2)CC1` (stereo not given) [US10626094, Example I206]: the IC50 fell in the range of 0.802 to 5 µM.

Consider `Clc1cccc(Cl)c1-c1cc(NCCCC2CCCNC2)c2ccccc2n1` (stereo not given) [US11220486, Compound I100], for which the IC50 was greater than 5 µM.
